Measured values from patent US20250170130A1, “MODULATORS OF MYC FAMILY PROTO-ONCOGENE PROTEIN” (Nalo Therapeutics, priority 2022, published 2025).
Like-named read-outs stand apart in the source and are kept apart here.

Tests used:
[1] = target: T1, MycN (Homo sapiens, UniProt P04198); test: Degradation of MycN protein in SK-N-BE(2) cells, JESS/Western blot of lysates; format: cell-based; settings: SKNBE2, 24 h; for Dmax at 0.5 µM: read-out: % Degradation of MycN (SKNBE2) 24 h, 0.5 μM; for Dmax at 1 µM: read-out: % Degradation of MycN (SKNBE2) 24 h, 1 μM; for Dmax at 3 µM: read-out: % Degradation of MycN (SKNBE2) 24 h, 3 μM; for Dmax at 6 µM: read-out: % Degradation of MycN (SKNBE2) 24 h, 6 μM
T1 construct: endogenous in cells; host or cells: SK-N-BE(2)
T1 sequence (P04198 1-464): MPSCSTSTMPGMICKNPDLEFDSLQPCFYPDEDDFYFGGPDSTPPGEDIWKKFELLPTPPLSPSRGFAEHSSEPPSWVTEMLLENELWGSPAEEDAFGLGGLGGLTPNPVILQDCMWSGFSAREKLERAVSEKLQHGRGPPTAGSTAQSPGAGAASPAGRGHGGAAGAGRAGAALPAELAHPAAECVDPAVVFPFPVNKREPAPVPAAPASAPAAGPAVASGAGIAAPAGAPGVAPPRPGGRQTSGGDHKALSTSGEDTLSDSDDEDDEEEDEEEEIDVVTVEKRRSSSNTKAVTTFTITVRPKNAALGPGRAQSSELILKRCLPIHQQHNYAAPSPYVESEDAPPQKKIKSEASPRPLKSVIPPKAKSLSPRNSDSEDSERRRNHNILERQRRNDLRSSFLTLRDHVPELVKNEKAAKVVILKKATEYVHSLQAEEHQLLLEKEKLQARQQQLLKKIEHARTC
How it was run: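 SK-N-BE(2) adherent cells (5E5 per well of a 6 well dish) were grown 24 hrs, then exposed to compounds diluted 1 in 20 in media, with DMSO controls, for 24 hrs. Cells were scraped, pelleted, PBS washed and lysed in RIPA buffer cocktail; after BCA protein quantitation, n-myc was detected by chemiluminescence on JESS/Western blot with tubulin and GAPDH loading controls read in the near infra red channel.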

[2] = target: T2, MycC (Homo sapiens, UniProt P01106); test: Degradation of MycC protein in L363 cells, JESS/Western blot of lysates; format: cell-based; settings: L-363, 24 h; for Dmax at 0.5 µM: read-out: % Degradation of MycC (L-363) 24 h, 0.5 μM; for Dmax at 1 µM: read-out: % Degradation of MycC (L-363) 24 h, 1 μM; for Dmax at 3 µM: read-out: % Degradation of MycC (L-363) 24 h, 3 μM; for Dmax at 6 µM: read-out: % Degradation of MycC (L-363) 24 h, 6 μM
T2 construct: endogenous in cells; host or cells: L363
T2 sequence (P01106 whole entry): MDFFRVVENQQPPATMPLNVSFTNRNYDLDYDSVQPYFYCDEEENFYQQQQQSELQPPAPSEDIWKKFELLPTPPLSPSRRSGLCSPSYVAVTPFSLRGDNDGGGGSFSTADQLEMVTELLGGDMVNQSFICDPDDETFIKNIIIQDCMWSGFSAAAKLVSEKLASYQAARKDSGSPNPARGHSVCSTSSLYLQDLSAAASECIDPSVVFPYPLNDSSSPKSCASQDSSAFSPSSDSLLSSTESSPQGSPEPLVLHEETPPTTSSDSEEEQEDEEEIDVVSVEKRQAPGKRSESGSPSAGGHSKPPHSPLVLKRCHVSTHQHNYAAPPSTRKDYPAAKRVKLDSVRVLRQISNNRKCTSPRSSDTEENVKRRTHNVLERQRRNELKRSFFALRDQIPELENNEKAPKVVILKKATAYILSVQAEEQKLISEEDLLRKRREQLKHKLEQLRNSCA
How it was run: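 L363 suspension cells were seeded at 1E6 cells per well and exposed to compound (stock 10 mM in DMSO) for 24 hrs. Cells were collected, spun down, rinsed with PBS, lysed in RIPA buffer cocktail on ice, clarified and kept at −80 degrees. Lysate protein was quantified by BCA, and c-myc was measured on JESS by chemiluminescence with tubulin and GAPDH loading controls in the NIR channel.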

Row | SMILES | Dmax at 0.5 µM ([1]; SKNBE2 cells, 24 h, 0.5 μM) [%] | Dmax at 1 µM ([1]; SKNBE2 cells, 24 h, 1 μM) [%] | Dmax at 3 µM ([1]; SKNBE2 cells, 24 h, 3 μM) [%] | Dmax at 6 µM ([1]; SKNBE2 cells, 24 h, 6 μM) [%] | Dmax at 0.5 µM ([2]; L-363 cells, 24 h) [%] | Dmax at 1 µM ([2]; L-363 cells, 24 h, 1 μM) [%] | Dmax at 3 µM ([2]; L-363 cells, 24 h, 3 μM) [%] | Dmax at 6 µM ([2]; L-363 cells, 24 h, 6 μM) [%] | Dmax at 0.5 µM [1] [%] | Dmax at 1 µM [1] [%] | Dmax at 3 µM [1] [%] | Dmax at 6 µM [1] [%] | Dmax at 1 µM [2] [%] | Dmax at 3 µM [2] [%] | Dmax at 6 µM [2] [%]
1 | NC[C@H]1CCCN(c2nccc(Nc3cc(C4CC4)[nH]n3)n2)C1 [Compound 29, 2-[(3R)-3-(Aminomethyl)-1-piperidyl]-N-(5-cyclopropyl-1H-pyrazol-3-yl)pyrimidin-4-amine] | 80 to 100 | 80 to 100 | 80 to 100 | 80 to 100 | 20 to 49 | 50 to 79 | 80 to 100 | 80 to 100 | – | – | – | – | – | – | –
2 | NCC12CC(C1)N(c1nccc(Nc3cc(C4CC4)[nH]n3)n1)C2 [Compound 30, 2-[4-(aminomethyl)-2-azabicyclo[2.1.1]hexan-2-yl]-N-(5-cyclopropyl-1H-pyrazol-3-yl)pyrimidin-4-amine] | – | – | – | – | – | – | – | – | < 20 | 50 to 79 | 80 to 100 | 80 to 100 | 20 to 49 | 80 to 100 | 80 to 100
3 | CNCC12CC(C1)N(c1nccc(Nc3cc(C4CCCC4)[nH]n3)n1)C2 [Compound 31, N-(5-cyclopentyl-1H-pyrazol-3-yl)-2-[4-(methylaminomethyl)-2-azabicyclo[2.1.1]hexan-2-yl]pyrimidin-4-amine] | 80 to 100 | 80 to 100 | 80 to 100 | 80 to 100 | – | – | 80 to 100 | 80 to 100 | – | – | – | – | – | – | –
4 | CNC[C@H]1CCN(c2nccc(Nc3cc(C4CCCC4)[nH]n3)n2)C1 [Compound 35, N-(5-cyclopentyl-1H-pyrazol-3-yl)-2-[(3R)-3-(methylaminomethyl)pyrrolidin-1-yl]pyrimidin-4-amine] | 20 to 49 | 50 to 79 | 80 to 100 | 80 to 100 | – | < 20 | 50 to 79 | 80 to 100 | – | – | – | – | – | – | –
5 | CNC[C@@H]1CCN(c2nccc(Nc3cc(C4CCCC4)[nH]n3)n2)C1 [Compound 36, N-(5-cyclopentyl-1H-pyrazol-3-yl)-2-[(3S)-3-(methylaminomethyl)pyrrolidin-1-yl]pyrimidin-4-amine] | 20 to 49 | < 20 | 80 to 100 | 80 to 100 | < 20 | 20 to 49 | < 20 | 80 to 100 | – | – | – | – | – | – | –
6 | CNC[C@@H]1CCCN(c2nccc(Nc3cc(C4CC4)[nH]n3)n2)C1 [Compound 37, N-(5-cyclopropyl-1H-pyrazol-3-yl)-2-[(3S)-3-(methylaminomethyl)-1-piperidyl]pyrimidin-4-amine] | 20 to 49 | 20 to 49 | 50 to 79 | 80 to 100 | – | < 20 | < 20 | – | – | – | – | – | – | – | –
7 | CN1CC(C2CCN(c3nccc(Nc4cc(C5CC5)[nH]n4)n3)C2)C1 (centres unmarked) [Compound 38, N-(5-Cyclopropyl-1H-pyrazol-3-yl)-2-[3-(1-methylazetidin-3-yl)pyrrolidin-1-yl]pyrimidin-4-amine] | 20 to 49 | 20 to 49 | 20 to 49 | 50 to 79 | < 20 | < 20 | < 20 | < 20 | – | – | – | – | – | – | –
8 | CN1C[C@H]2CN(c3nccc(Nc4cc(C5CC5)[nH]n4)n3)C[C@H]21 [Compound 40, N-(5-Cyclopropyl-1H-pyrazol-3-yl)-2-[(1S,5S)-6-methyl-3,6-diazabicyclo[3.2.0]heptan-3-yl]pyrimidin-4-amine] | – | – | < 20 | < 20 | < 20 | < 20 | < 20 | – | – | – | – | – | – | – | –
9 | c1cc(Nc2cc(C3CC3)[nH]n2)nc(N2CCC3(CCNC3)C2)n1 (centres unmarked) [Compound 42, N-(5-Cyclopropyl-1H-pyrazol-3-yl)-2-(2,7-diazaspiro[4.4]nonan-2-yl)pyrimidin-4-amine] | 20 to 49 | 50 to 79 | 50 to 79 | 80 to 100 | < 20 | < 20 | – | 80 to 100 | – | – | – | – | – | – | –
10 | CN1CC2(CCCN(c3nccc(Nc4cc(C5CC5)[nH]n4)n3)C2)C1 [Compound 43] | 20 to 49 | 20 to 49 | 20 to 49 | 50 to 79 | 20 to 49 | < 20 | 20 to 49 | < 20 | – | – | – | – | – | – | –
11 | CN1CC2(CCN(c3nccc(Nc4cc(C5CC5)[nH]n4)n3)CC2)C1 [Compound 44, N-(5-Cyclopropyl-1H-pyrazol-3-yl)-2-(2-methyl-2,7-diazaspiro[3.5]nonan-7-yl)pyrimidin-4-amine] | – | < 20 | 20 to 49 | 80 to 100 | – | – | < 20 | 80 to 100 | – | – | – | – | – | – | –
12 | CNCC12CCC(C1)N(c1nccc(Nc3cc(C4CC4)[nH]n3)n1)C2 (centres unmarked) [Compound 45, N-(5-Cyclopropyl-1H-pyrazol-3-yl)-2-[4-(methylaminomethyl)-2-azabicyclo[2.2.1]heptan-2-yl]pyrimidin-4-amine] | 80 to 100 | 80 to 100 | 80 to 100 | 80 to 100 | 80 to 100 | 80 to 100 | 80 to 100 | 80 to 100 | – | – | – | – | – | – | –
13 | CN(C)CCCN(C)c1nccc(Nc2cc(C3CC3)[nH]n2)n1 [Compound 48, N^4-(5-cyclopropyl-1H-pyrazol-3-yl)-N^2-[3-(dimethylamino)propyl]-N^2-methyl-pyrimidine-2,4-diamine] | < 20 | < 20 | < 20 | < 20 | – | 20 to 49 | < 20 | 20 to 49 | – | – | – | – | – | – | –
14 | c1cc(Nc2cc(C3CC3)[nH]n2)nc(N2C[C@H]3CN[C@H]3C2)n1 [Compound 53, N-(5-Cyclopropyl-1H-pyrazol-3-yl)-2-[(1R,5R)-3,6-diazabicyclo[3.2.0]heptan-3-yl]pyrimidin-4-amine] | – | – | – | < 20 | – | – | 20 to 49 | < 20 | – | – | – | – | – | – | –
15 | c1cc(Nc2cc(C3CC3)[nH]n2)nc(N2CC(C3CNC3)C2)n1 [Compound 64, 2-[3-(Azetidin-3-yl)azetidin-1-yl]-N-(5-cyclopropyl-1H-pyrazol-3-yl)pyrimidin-4-amine] | < 20 | – | < 20 | 20 to 49 | – | < 20 | 20 to 49 | 20 to 49 | – | – | – | – | – | – | –
16 | CN1CC(C2CN(c3nccc(Nc4cc(C5CCCC5)[nH]n4)n3)C2)C1 [Compound 65, N-(5-Cyclopentyl-1H-pyrazol-3-yl)-2-[3-(1-methylazetidin-3-yl)azetidin-1-yl]pyrimidin-4-amine] | < 20 | < 20 | 20 to 49 | 50 to 79 | < 20 | < 20 | < 20 | 50 to 79 | – | – | – | – | – | – | –
17 | NCC12CC(C1)N(c1nccc(Nc3cc(C4CCCC4)[nH]n3)n1)C2 [Compound 66, 2-[4-(aminomethyl)-2-azabicyclo[2.1.1]hexan-2-yl]-N-(5-cyclopentyl-1H-pyrazol-3-yl)pyrimidin-4-amine] | – | 80 to 100 | 80 to 100 | 80 to 100 | < 20 | – | 80 to 100 | 80 to 100 | – | – | – | – | – | – | –
